Assays:
[1] = test system: MCF-7; test: MTT anti-proliferative assay, MCF-7; format: cell-based; details: for IC50: Homo sapiens, MCF7, 72 h, read-out: IC50 MCF-7; for folds toxic in MCF-7 than in ordinary VERO cells: MCF-7 versus VERO
[2] = biological target: EGFR^T790M (Homo sapiens, UniProt P00533, T790M); test: EGFR^T790M kinase inhibitory assay; format: biochemical
[3] = test system: HepG2; test: MTT anti-proliferative assay, HepG2; format: cell-based; details: for IC50: Homo sapiens, HepG2, 72 h, read-out: IC50 HepG2; for fold times more toxic in HepG-2 than in VERO normal cells: HepG-2 versus VERO
[4] = test system: A549; test: MTT anti-proliferative assay, A549; format: cell-based; details: for IC50: Homo sapiens, A549, 72 h, read-out: IC50 A549; for folds toxic in A549 than in ordinary VERO cells: A549 versus VERO
[5] = biological target: VEGFR-2 (Homo sapiens, UniProt P35968); test: VEGFR-2 kinase inhibitory assay; format: biochemical
[6] = test system: HCT-116; test: MTT anti-proliferative assay, HCT-116; format: cell-based; details: for IC50: Homo sapiens, HCT-116, 72 h, read-out: IC50 HCT116; for folds toxic in HCT-116 than in normal VERO cells: HCT-116 versus VERO

Chain of EGFR^T790M (P00533 25-1210 T790M): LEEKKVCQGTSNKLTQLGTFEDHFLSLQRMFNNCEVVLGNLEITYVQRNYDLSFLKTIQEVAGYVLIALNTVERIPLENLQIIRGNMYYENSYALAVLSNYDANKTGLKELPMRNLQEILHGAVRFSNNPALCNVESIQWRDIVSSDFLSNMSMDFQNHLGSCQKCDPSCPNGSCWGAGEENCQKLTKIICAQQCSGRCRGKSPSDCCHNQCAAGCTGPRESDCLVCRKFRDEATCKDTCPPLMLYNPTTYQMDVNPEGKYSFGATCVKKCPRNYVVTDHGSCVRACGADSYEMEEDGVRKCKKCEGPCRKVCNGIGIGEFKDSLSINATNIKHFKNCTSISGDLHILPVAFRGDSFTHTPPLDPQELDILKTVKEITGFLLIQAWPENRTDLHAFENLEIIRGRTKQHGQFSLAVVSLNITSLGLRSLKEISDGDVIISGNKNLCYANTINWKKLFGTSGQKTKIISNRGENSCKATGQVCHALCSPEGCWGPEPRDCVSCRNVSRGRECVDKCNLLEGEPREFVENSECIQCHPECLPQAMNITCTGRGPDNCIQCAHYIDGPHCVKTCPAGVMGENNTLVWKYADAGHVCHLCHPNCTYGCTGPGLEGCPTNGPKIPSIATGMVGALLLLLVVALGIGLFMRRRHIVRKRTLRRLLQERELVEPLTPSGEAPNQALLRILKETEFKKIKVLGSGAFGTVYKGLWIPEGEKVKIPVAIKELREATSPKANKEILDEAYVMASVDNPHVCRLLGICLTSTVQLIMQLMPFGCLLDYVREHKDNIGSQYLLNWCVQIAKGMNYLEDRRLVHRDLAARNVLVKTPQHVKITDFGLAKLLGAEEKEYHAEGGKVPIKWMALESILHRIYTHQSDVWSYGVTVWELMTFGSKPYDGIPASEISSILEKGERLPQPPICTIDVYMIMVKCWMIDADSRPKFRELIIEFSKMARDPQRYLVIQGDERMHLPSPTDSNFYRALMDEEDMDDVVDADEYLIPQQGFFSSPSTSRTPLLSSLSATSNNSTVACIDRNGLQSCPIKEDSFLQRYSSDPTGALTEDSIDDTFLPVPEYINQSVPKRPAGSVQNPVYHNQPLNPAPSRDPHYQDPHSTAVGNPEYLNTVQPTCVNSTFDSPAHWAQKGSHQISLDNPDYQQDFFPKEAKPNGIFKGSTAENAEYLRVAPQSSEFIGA
Chain of VEGFR-2 (P35968 20-1356): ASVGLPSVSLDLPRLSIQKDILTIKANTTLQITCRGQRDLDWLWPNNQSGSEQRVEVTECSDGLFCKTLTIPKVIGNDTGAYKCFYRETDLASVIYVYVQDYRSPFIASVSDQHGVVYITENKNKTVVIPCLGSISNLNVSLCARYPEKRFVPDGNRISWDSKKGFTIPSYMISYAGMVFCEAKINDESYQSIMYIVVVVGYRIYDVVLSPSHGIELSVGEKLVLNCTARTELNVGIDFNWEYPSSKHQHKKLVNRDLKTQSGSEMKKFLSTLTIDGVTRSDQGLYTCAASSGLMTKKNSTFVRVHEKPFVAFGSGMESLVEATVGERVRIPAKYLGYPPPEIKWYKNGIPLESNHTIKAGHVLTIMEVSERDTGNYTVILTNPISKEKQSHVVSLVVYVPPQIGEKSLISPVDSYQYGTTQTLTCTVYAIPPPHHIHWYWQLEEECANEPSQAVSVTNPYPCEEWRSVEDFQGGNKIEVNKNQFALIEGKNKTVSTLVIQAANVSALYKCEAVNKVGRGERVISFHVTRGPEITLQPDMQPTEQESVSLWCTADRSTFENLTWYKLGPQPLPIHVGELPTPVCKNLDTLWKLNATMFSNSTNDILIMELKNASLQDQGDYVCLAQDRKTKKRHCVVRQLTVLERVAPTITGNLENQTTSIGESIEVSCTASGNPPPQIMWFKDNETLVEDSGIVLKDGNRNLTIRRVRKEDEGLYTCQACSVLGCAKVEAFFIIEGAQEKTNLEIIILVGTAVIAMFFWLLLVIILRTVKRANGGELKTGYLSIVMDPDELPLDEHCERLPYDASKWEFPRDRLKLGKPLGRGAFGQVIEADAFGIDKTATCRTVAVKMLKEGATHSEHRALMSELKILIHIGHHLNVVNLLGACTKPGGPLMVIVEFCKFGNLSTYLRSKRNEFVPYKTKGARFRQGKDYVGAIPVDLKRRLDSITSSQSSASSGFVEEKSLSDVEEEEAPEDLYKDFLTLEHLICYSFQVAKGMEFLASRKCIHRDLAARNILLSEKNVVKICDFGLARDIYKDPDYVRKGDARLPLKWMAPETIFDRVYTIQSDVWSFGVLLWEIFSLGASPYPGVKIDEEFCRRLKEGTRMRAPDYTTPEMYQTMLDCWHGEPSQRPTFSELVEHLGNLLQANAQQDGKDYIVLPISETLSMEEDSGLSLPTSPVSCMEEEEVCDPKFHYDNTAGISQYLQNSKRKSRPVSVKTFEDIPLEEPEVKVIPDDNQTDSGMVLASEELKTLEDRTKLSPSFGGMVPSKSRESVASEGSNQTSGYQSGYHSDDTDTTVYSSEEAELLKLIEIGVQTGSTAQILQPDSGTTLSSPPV

| SMILES | IC50 [1] [µM] | IC50 [2] [µM] | IC50 [3] [µM] | IC50 [4] [µM] | IC50 [5] [µM] | IC50 [6] [µM] | folds toxic in MCF-7 than in ordinary VERO cells [1] [folds] | fold times more toxic in HepG-2 than in VERO normal cells [3] [fold] | folds toxic in A549 than in ordinary VERO cells [4] [folds] | folds toxic in HCT-116 than in normal VERO cells [6] [folds] |
| --- | --- | --- | --- | --- | --- | --- | --- | --- | --- | --- |
| NC1=NOC(=O)C1=NNc1ccc(N=Nc2ccccc2)cc1 [Compound 3, 3-Amino-4-{2-[4-(phenyldiazenyl)phenyl]hydrazono}isoxazol-5(4H)-one] | 17.6 ± 4.5 | 2.1 ± 0.25 | 19 ± 4.4 | 25.5 ± 3.5 | 3.25 ± 0.5 | 16.8 ± 3.7 |  |  |  |  |
| NC1=NNC(=O)C1=NNc1ccc(N=Nc2ccccc2)cc1 [Compound 4, 5-Amino-4-{2-[4-(phenyldiazenyl)phenyl]hydrazono}-2,4-dihydro-3H-pyrazol-3-one] | 11.3 ± 3.3 | 1.2 ± 0.35 | 10.6 ± 3 | 10.8 ± 1.5 | 1.85 ± 0.1 | 11.3 ± 3.1 |  |  |  |  |
| NC1=NN(c2ccccc2)C(=O)C1=NNc1ccc(N=Nc2ccccc2)cc1 [Compound 5, 5-Amino-2-phenyl-4-{2-[4-(phenyldiazenyl)phenyl]hydrazono}-2,4-dihydro-3H-pyrazol-3-one] | 6.98 ± 1.1 | 0.4 ± 0.35 | 7.8 ± 0.7 | 6.5 ± 1.5 | 1.25 ± 0.5 | 8.12 ± 0.9 | 6.21 | 5.72 | 8.86 | 5.53 |
| NC1=NN(c2ccc([N+](=O)[O-])cc2[N+](=O)[O-])C(=O)C1=NNc1ccc(N=Nc2ccccc2)cc1 [Compound 6, 5-Amino-2-(2,4-dinitrophenyl)-4-{2-[4-(phenyldiazenyl)phenyl]hydrazono}-2,4-dihydro-3H-pyrazol-3-one] | 9.11 ± 2.7 | 0.35 ± 0.15 | 8.17 ± 2.6 | 5.88 ± 0.5 | 1.6 ± 0.5 | 10.1 ± 2.9 | 4.59 | 5.49 | 6.54 | 4.47 |
| NC(=O)N1N=C(N)C(N=Nc2ccc(N=Nc3ccccc3)cc2)C1=O (stereo not drawn) [Compound 7, 3-Amino-5-oxo-4-{[4-(phenyldiazenyl)phenyl]diazenyl}-4,5-dihydro-1H-pyrazole-1-carboxamide] | 14.2 ± 3.5 | 0.9 ± 0.25 | 15.6 ± 3.5 | 8.5 ± 0.5 | 2.35 ± 0.2 | 17.5 ± 4 |  |  |  |  |
| N#CC(=NNc1ccc(N=Nc2ccccc2)cc1)c1nc(=S)[nH][nH]1 [Compound 9, N-[4-(Phenyldiazenyl)phenyl]-5-thioxo-2,5-dihydro-1H-1,2,4-triazole-3-carbohydrazonoyl-cyanide] | 13.8 ± 3 | 1.35 ± 0.15 | 14.5 ± 2.8 | 12.2 ± 2.5 | 2 ± 0.1 | 16.8 ± 3.3 |  |  |  |  |
| N#Cc1nn(-c2ccc(N=Nc3ccccc3)cc2)c(=S)n(-c2ccccc2)c1=O [Compound 10, 5-Oxo-4-phenyl-2-[4-(phenyldiazenyl)phenyl]-3-thioxo-2,3,4,5-tetrahydro-1,2,4-triazine-6-carbonitrile] | 7.28 ± 2.4 | 0.5 ± 0.25 | 6.81 ± 1.9 | 7.35 ± 1.5 | 1.5 ± 0.1 | 9.23 ± 2.2 | 5.81 | 6.39 | 8.67 | 4.96 |
| N#Cc1nn(-c2ccc(N=Nc3ccccc3)cc2)c(=S)[nH]c1=O [Compound 11, 5-Oxo-2-[4-(phenyldiazenyl)phenyl]-3-thioxo-2,3,4,5-tetrahydro-1,2,4-triazine-6-carbonitrile] | 39.2 ± 4.8 | 2.5 ± 0.35 | 35.6 ± 4.8 | 30.2 ± 3.5 | 3.85 ± 0.5 | 37.9 ± 4.6 |  |  |  |  |
| N#Cc1nn(-c2ccc(N=Nc3ccccc3)cc2)c(=O)[nH]c1=O [Compound 12, 3,5-Dioxo-2-[4-(phenyldiazenyl)phenyl]-2,3,4,5-tetrahydro-1,2,4-triazine-6-carbonitrile] | 30.2 ± 4.8 | 0.95 ± 0.35 | 21.1 ± 4.9 | 9.25 ± 1.5 | 3.5 ± 0.5 | 22.5 ± 4.8 |  |  |  |  |
| N#Cc1nn(-c2ccc(N=Nc3ccccc3)cc2)c(=N)[nH]c1=O [Compound 13, 3-Imino-5-oxo-2-[4-(phenyldiazenyl)phenyl]-2,3,4,5-tetrahydro-1,2,4-triazine-6-carbonitrile] | 23.1 ± 3.8 | 1.5 ± 0.15 | 20.5 ± 4.2 | 15.5 ± 2.5 | 3.35 ± 0.5 | 20.1 ± 3.5 |  |  |  |  |
| N#Cc1nn(-c2ccc(N=Nc3ccccc3)cc2)c(=N)n(S(=O)(=O)c2ccc(N)cc2)c1=O [Compound 14, 4-[(4-Aminophenyl)sulfonyl]-3-imino-5-oxo-2-[4-(phenyldiazenyl)phenyl]-2,3,4,5-tetrahydro-1,2,4-triazine-6-carbonitrile] | 6.37 ± 2.5 | 0.25 ± 0.15 | 6.23 ± 2.3 | 5.15 ± 1.5 | 0.95 ± 0.1 | 8.44 ± 2.6 | 5.76 | 6.86 | 10.72 | 7.68 |
| C#Cc1cccc(Nc2ncnc3cc(OCCOC)c(OCCOC)cc23)c1 [Erlotinib, reference compound] | 8.2 ± 0.34 |  |  |  |  |  |  |  |  |  |
| CNC(=O)c1cc(Oc2ccc(NC(=O)Nc3ccc(Cl)c(C(F)(F)F)c3)cc2)ccn1 [Sorafenib, reference compound] |  |  | 4 ± 0.33 |  |  |  |  |  |  |  |

Reference: publication PMC10695193 (RSC Advances, 2023)
